# Laboratory results taken from ChEMBL document CHEMBL4354870, “GSK2818713, a Novel Biphenylene Scaffold-Based Hepatitis C NS5A Replication Complex Inhibitor with Broad Genotype Coverage” (J Med Chem, 2020).
# Calls of active or inactive are those of the source. The calls are words filed in the database; no cut-off is given here.
# What was measured:
# [1] = Volume of distribution at steady state in Han Wistar rat at 1 mg/kg, iv by LC-MS/MS analysis; type: ADME, organism-based; details: in vivo, read-out: Vdss
# [2] = AUC (0 to infinity) in Beagle dog at 1 mg/kg, po by LC-MS/MS analysis; type: ADME, organism-based, Canis lupus familiaris; parameters: dose 1 mg/kg, route oral, time infinity; details: in vivo
# [3] = AUC (0 to infinity) in Han Wistar rat at 1 mg/kg, iv by LC-MS/MS analysis; type: ADME, organism-based; parameters: dose 1 mg/kg, time infinity, route intravenous; details: in vivo
# [4] = AUC (0 to infinity) in Beagle dog at 1 mg/kg, iv by LC-MS/MS analysis; type: ADME, organism-based, Canis lupus familiaris; parameters: dose 1 mg/kg, route intravenous, time infinity; details: in vivo
# [5] = AUC (0 to infinity) in Han Wistar rat at 5 mg/kg, po by LC-MS/MS analysis; type: ADME, organism-based; parameters: dose 5 mg/kg, time infinity, route oral; details: in vivo
# [6] = Half life in Beagle dog at 1 mg/kg, iv by LC-MS/MS analysis; type: ADME, organism-based, Canis lupus familiaris; details: in vivo
# [7] = AUC (0 to t) in CD1 mouse at 1 mg/kg, iv by LC-MS/MS analysis; type: ADME, organism-based; details: in vivo
# [8] = Tmax in Han Wistar rat at 5 mg/kg, po by LC-MS/MS analysis; type: ADME, organism-based; details: in vivo
# [9] = Clearance in Beagle dog at 1 mg/kg, iv by LC-MS/MS analysis; type: ADME, organism-based, Canis lupus familiaris; details: in vivo
# [10] = Half life in Han Wistar rat at 5 mg/kg, po by LC-MS/MS analysis; type: ADME, organism-based; details: in vivo
# [11] = Oral bioavailability in Beagle dog at 1 mg/kg by LC-MS/MS analysis; type: ADME, organism-based, Canis lupus familiaris; details: in vivo
# [12] = Cmax in Beagle dog at 1 mg/kg, po by LC-MS/MS analysis; type: ADME, organism-based, Canis lupus familiaris; parameters: dose 1 mg/kg, route oral; details: in vivo
# [13] = Oral availability in Han Wistar rat at 5 mg/kg by LC-MS/MS analysis; type: ADME, organism-based; details: in vivo
# [14] = Tmax in Beagle dog at 1 mg/kg, po by LC-MS/MS analysis; type: ADME, organism-based, Canis lupus familiaris; details: in vivo
# [15] = Tmax in CD1 mouse at 5 mg/kg, po by LC-MS/MS analysis; type: ADME, organism-based; details: in vivo
# [16] = Oral bioavailability in CD1 mouse at 5 mg/kg by LC-MS/MS analysis; type: ADME, organism-based; details: in vivo
# [17] = Cmax in Han Wistar rat at 5 mg/kg, po by LC-MS/MS analysis; type: ADME, organism-based; parameters: dose 5 mg/kg, route oral; details: in vivo
# [18] = Half life in CD1 mouse at 5 mg/kg, po by LC-MS/MS analysis; type: ADME, organism-based; details: in vivo
# [19] = Half life in Han Wistar rat at 1 mg/kg, iv by LC-MS/MS analysis; type: ADME, organism-based; details: in vivo
# [20] = AUC (0 to t) in Beagle dog at 1 mg/kg, iv by LC-MS/MS analysis; type: ADME, organism-based, Canis lupus familiaris; details: in vivo
# [21] = AUC (0 to t) in Beagle dog at 1 mg/kg, po by LC-MS/MS analysis; type: ADME, organism-based, Canis lupus familiaris; details: in vivo
# [22] = AUC (0 to infinity) in CD1 mouse at 1 mg/kg, iv by LC-MS/MS analysis; type: ADME, organism-based; parameters: dose 1 mg/kg, time infinity, route intravenous; details: in vivo
# [23] = AUC (0 to t) in CD1 mouse at 5 mg/kg, po by LC-MS/MS analysis; type: ADME, organism-based; details: in vivo
# [24] = AUC (0 to infinity) in CD1 mouse at 5 mg/kg, po by LC-MS/MS analysis; type: ADME, organism-based; parameters: dose 5 mg/kg, route oral, time infinity; details: in vivo
# [25] = Half life in CD1 mouse at 1 mg/kg, iv by LC-MS/MS analysis; type: ADME, organism-based; details: in vivo
# [26] = Half life in Beagle dog at 1 mg/kg, po by LC-MS/MS analysis; type: ADME, organism-based, Canis lupus familiaris; details: in vivo
# [27] = Cmax in CD1 mouse at 5 mg/kg, po by LC-MS/MS analysis; type: ADME, organism-based; parameters: dose 5 mg/kg, route oral; details: in vivo
# [28] = AUC (0 to t) in Han Wistar rat at 5 mg/kg, po by LC-MS/MS analysis; type: ADME, organism-based; details: in vivo
# [29] = Clearance in CD1 mouse at 1 mg/kg, iv by LC-MS/MS analysis; type: ADME, organism-based; details: in vivo
# [30] = Clearance in Han Wistar rat at 1 mg/kg, iv by LC-MS/MS analysis; type: ADME, organism-based; details: in vivo
# [31] = AUC (0 to t) in Han Wistar rat at 1 mg/kg, iv by LC-MS/MS analysis; type: ADME, organism-based; details: in vivo
# [32] = Volume of distribution at steady state in Beagle dog at 1 mg/kg, iv by LC-MS/MS analysis; type: ADME, organism-based, Canis lupus familiaris; details: in vivo, read-out: Vdss
# [33] = Volume of distribution at steady state in CD1 mouse at 1 mg/kg, iv by LC-MS/MS analysis; type: ADME, organism-based; details: in vivo, read-out: Vdss
# [34] = target: T1, Nonstructural protein 5A (Hepatitis C virus) (UniProt Q5L478); experiment: Potency index, ratio of EC50 of cpd1 to EC50 of compound for inhibition of HCV genotype 2a con NS5A infected in HuH-Lcu-Neo cells assessed as reduction in viral replication incubated for 48 hrs by luciferase reporter gene assay; type: cell-based; details: Hepatitis C virus subtype 2a
# T1 sequence (whole entry): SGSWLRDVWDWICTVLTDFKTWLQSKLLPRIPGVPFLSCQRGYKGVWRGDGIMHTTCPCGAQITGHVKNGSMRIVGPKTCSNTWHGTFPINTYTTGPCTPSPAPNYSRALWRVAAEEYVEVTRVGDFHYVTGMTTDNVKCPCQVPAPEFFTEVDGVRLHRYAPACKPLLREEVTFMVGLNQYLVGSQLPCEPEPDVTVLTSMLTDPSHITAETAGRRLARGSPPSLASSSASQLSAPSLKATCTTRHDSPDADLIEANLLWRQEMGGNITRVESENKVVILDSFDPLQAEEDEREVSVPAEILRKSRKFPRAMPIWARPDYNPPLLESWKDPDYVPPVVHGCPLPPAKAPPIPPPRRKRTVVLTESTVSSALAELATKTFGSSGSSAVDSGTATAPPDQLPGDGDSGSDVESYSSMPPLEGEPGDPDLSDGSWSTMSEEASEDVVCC
# [35] = target: T1, Nonstructural protein 5A (Hepatitis C virus); experiment: Inhibition of HCV NS5A infected in HuH-Lcu-Neo cells assessed as reduction in viral replication in presence of NNI incubated for 48 hrs by luciferase reporter gene assay; type: cell-based; details: Hepacivirus hominis
# [36] = target: T1, Nonstructural protein 5A (Hepatitis C virus); experiment: Inhibition of HCV genotype 1b NS5A infected in HuH-Lcu-Neo cells assessed as log reduction in virus RNA level at 10 times of EC90 incubated for 21 days by luciferase reporter gene assay; type: cell-based; details: Hepatitis C virus subtype 1b
# [37] = target: T1, Nonstructural protein 5A (Hepatitis C virus); experiment: Inhibition of HCV NS5A infected in HuH-Lcu-Neo cells assessed as reduction in viral replication in presence of NM107 incubated for 48 hrs by luciferase reporter gene assay; type: cell-based; details: Hepacivirus hominis
# [38] = target: T1, Nonstructural protein 5A (Hepatitis C virus); experiment: Potency index, ratio of EC50 of DCV to EC50 of compound for inhibition of patient-derived HCV genotype 2a NS5A infected in HuH-Lcu-Neo cells assessed as reduction in viral replication incubated for 48 hrs by luciferase reporter gene assay; type: cell-based; details: Hepatitis C virus subtype 2a
# [39] = target: T1, Nonstructural protein 5A (Hepatitis C virus); experiment: Inhibition of HCV NS5A infected in HuH-Lcu-Neo cells assessed as reduction in viral replication in presence of ribavirin incubated for 48 hrs by luciferase reporter gene assay; type: cell-based; details: Hepacivirus hominis
# [40] = target: T1, Nonstructural protein 5A (Hepatitis C virus); experiment: Potency index, ratio of EC50 of DCV to EC50 of compound for inhibition of HCV genotype 2a con NS5A infected in HuH-Lcu-Neo cells assessed as reduction in viral replication incubated for 48 hrs by luciferase reporter gene assay; type: cell-based; details: Hepatitis C virus subtype 2a
# [41] = target: T1, Nonstructural protein 5A (Hepatitis C virus); experiment: Inhibition of HCV genotype 1a NS5A infected in HuH-Lcu-Neo cells assessed as log reduction in virus RNA level at 10 times of EC90 incubated for 21 days by luciferase reporter gene assay; type: cell-based; details: Hepatitis C virus subtype 1a
# [42] = target: T1, Nonstructural protein 5A (Hepatitis C virus); experiment: Potency index, ratio of EC50 of DCV to EC50 of compound for inhibition of patient-derived HCV genotype 3a NS5A infected in HuH-Lcu-Neo cells assessed as reduction in viral replication incubated for 48 hrs by luciferase reporter gene assay; type: cell-based; details: Hepatitis C virus subtype 3a
# [43] = target: T1, Nonstructural protein 5A (Hepatitis C virus); experiment: Potency index, ratio of EC50 of DCV to EC50 of compound for inhibition of HCV genotype 3a con NS5A infected in HuH-Lcu-Neo cells assessed as reduction in viral replication incubated for 48 hrs by luciferase reporter gene assay; type: cell-based; details: Hepatitis C virus subtype 3a
# [44] = target: T1, Nonstructural protein 5A (Hepatitis C virus); experiment: Inhibition of HCV genotype 3a con NS5A infected in HuH-Lcu-Neo cells assessed as fold reduction in virus RNA level at 10 times of EC90 incubated for 21 days by luciferase reporter gene assay; type: cell-based; details: Hepatitis C virus subtype 3a
# [45] = target: T1, Nonstructural protein 5A (Hepatitis C virus); experiment: Inhibition of HCV genotype 2a con NS5A infected in HuH-Lcu-Neo cells assessed as fold reduction in virus RNA level at 10 times of EC90 incubated for 21 days by luciferase reporter gene assay; type: cell-based; details: Hepatitis C virus subtype 2a
# [46] = target: T1, Nonstructural protein 5A (Hepatitis C virus); experiment: Inhibition of HCV NS5A infected in HuH-Lcu-Neo cells assessed as reduction in viral replication in presence of BILN2061 incubated for 48 hrs by luciferase reporter gene assay; type: cell-based; details: Hepacivirus hominis
smiles,measurement,setting,value
COC(=O)N[C@H](C(=O)N1[C@H](c2ncc(-c3ccc4c(c3)-c3ccc(-c5cnc([C@@H]6C[C@@H]7CCC[C@@H]7N6C(=O)[C@@H](NC(=O)OC)[C@@H](C)OC)[nH]5)cc3-4)[nH]2)C[C@@H]2CCC[C@@H]21)[C@@H](C)OC [listing 1 of 2 here],Vd,[1],1.3 L/kg
same,AUC(0-inf),[2],633 ng·h/mL
same,AUC(0-inf),[3],501 ng·h/mL
same,AUC(0-inf),[4],3180 ng·h/mL
same,AUC(0-inf),[5],216 ng·h/mL
same,half-life,[6],5.2 h
same,AUC(0-t),[7],1070 ng·h/mL
same,Tmax,[8],2 h
same,clearance,[9],5.3 mL/min/kg
same,half-life,[10],4.8 h
same,bioavailability,[11],20%
same,Cmax,[12],99 ng/mL
same,bioavailability,[13],9%
same,Tmax,[14],4 h
same,Tmax,[15],2 h
same,bioavailability,[16],46%
same,Cmax,[17],32 ng/mL
same,half-life,[18],1.7 h
same,half-life,[19],1.5 h
same,AUC(0-t),[20],3140 ng·h/mL
same,AUC(0-t),[21],593 ng·h/mL
same,AUC(0-inf),[22],1100 ng·h/mL
same,AUC(0-t),[23],2490 ng·h/mL
same,AUC(0-inf),[24],2550 ng·h/mL
same,half-life,[25],1.7 h
same,half-life,[26],6 h
same,Cmax,[27],506 ng/mL
same,AUC(0-t),[28],178 ng·h/mL
same,clearance,[29],15.4 mL/min/kg
same,clearance,[30],33.8 mL/min/kg
same,AUC(0-t),[31],498 ng·h/mL
same,Vd,[32],1 L/kg
same,Vd,[33],1.3 L/kg
COC(=O)N[C@H](C(=O)N1CCC[C@H]1c1ncc(-c2ccc3c(c2)-c2ccc(-c4cnc([C@@H]5CCCN5C(=O)[C@@H](c5ccccc5)N(C)C)[nH]4)cc2-3)[nH]1)C(C)C,Ratio EC50,[34],22
CN(C)[C@@H](C(=O)N1CCC[C@H]1c1ncc(-c2ccc3c(c2)-c2ccc(-c4cnc([C@@H]5CCCN5C(=O)[C@@H](c5ccccc5)N(C)C)[nH]4)cc2-3)[nH]1)c1ccccc1,Ratio EC50,[34],98
COC(=O)N[C@H](C(=O)N1[C@H](c2ncc(-c3ccc4c(c3)-c3ccc(-c5cnc([C@@H]6C[C@@H]7CCC[C@@H]7N6C(=O)[C@@H](NC(=O)OC)[C@@H](C)OC)[nH]5)cc3-4)[nH]2)C[C@@H]2CCC[C@@H]21)[C@@H](C)OC.Cl,AUC(0-inf),[5],1260 ng·h/mL
same,Tmax,[8],1.5 h
same,half-life,[10],1.7 h
same,bioavailability,[13],41%
same,Cmax,[17],258 ng/mL
same,AUC(0-t),[28],1250 ng·h/mL
COC(=O)N[C@H](C(=O)N1[C@H](c2ncc(-c3ccc4c(c3)-c3ccc(-c5cnc([C@@H]6C[C@@H]7CCC[C@@H]7N6C(=O)[C@@H](NC(=O)OC)[C@@H](C)OC)[nH]5)cc3-4)[nH]2)C[C@@H]2CCC[C@@H]21)[C@@H](C)OC [listing 2 of 2 here],inhibition,[35],inactive
same,FC,[36],> 5
same,inhibition,[37],inactive
same,Ratio EC50,[38],74
same,inhibition,[39],inactive
same,Ratio EC50,[40],462
same,FC,[41],1.8 to 3.1
same,Ratio EC50,[42],37
same,Ratio EC50,[43],20
same,fold change (FC),[44],1.8 to 3.1
same,fold change (FC),[45],1.8 to 3.1
same,inhibition,[46],inactive
